Publication PMC6895180 (Nature Communications, 2019)
Where “and” joins values, the source holds several entries; their conditions need not be identical. Identical values can stand only once. Like-named read-outs stand apart in the source and are kept apart here.

Experiments:
[1] = tested on: RNAi clones targeting FLA1BP, EndoG, RHS5, BCKDHA in T. brucei NY-SM cells; assay: Susceptibility of RNAi clones targeting FLA1BP, EndoG, RHS5, BCKDHA; assay type: cell-based, Trypanosoma brucei brucei
Description: (§1) Susceptibility assays with NY-SM[51], BS221[48] and TbAT1-KO[48] (derived from BS221) cells were performed using 10 concentrations of a 4-fold compound dilution series starting at 64 µM. Parasites were seeded at 4 × 10^3 parasites per well and exposed to drug compound for 72 h, after which resazurin (final concentration of 10 µg mL^−1) was added to the plates. Fluorescence intensities were determined after 6 h.
(§2) The RNAi library[54] was induced for 68 h by the addition of 1 µg mL^−1 of tetracycline. After induction, the cells were exposed to different concentrations of 9 (corresponding to the IC98, IC99). Cells were maintained until a recovery of the resistant population was observed. Genomic DNA of the resistant parasite population was isolated, and the RNAi inserts were identified by PCR amplification, followed by cloning in highly competent Escherichia coli and sequencing. To validate the involvement of the identified genes, the RNAi inserts were back-cloned into a p2T7Bern vector[54] and transformed into NY-SM cells (the background strain of the RNAi library). The transformed NY-SM cells were cloned by limiting dilution. Two clones of each RNAi insert were exposed to tetracycline to induce the RNAi phenotype and subsequently subjected to different concentrations of 9 to determine the susceptibility of induced versus non-induced clones.
(§3) Drug susceptibility assays with induced clones were performed as described above for NY-SM cells, with an initial induction period of 68 h with 1 µg mL^−1 tetracycline prior to the start of the drug susceptibility assay.
Supplementary Figure 6: Drug sensitivity of RNAi clones
Supplementary Figure 6: Drug susceptibility of RNAi clones targeting (A) FLA1BP (FLA1 binding protein), (B) EndoG (Endonuclease G), (C) RHS5 (Retrotransposon Hotspotprotein 5), (D) BCKDHA (branched chain keto acid dehydrogenase, i.e. 2-oxoisovalerate dehydrogenase). Results are expressed as the mean IC50 (µM) ± SEM and are based on two independent experiments with two biological replicates. + = tetracycline-induced clones. - = non-induced clones. All experiments were performed with two independent RNAi clones (A and B). Source data are provided as a Source Data file. […]

[2] = tested on: RNAi clones targeting adenosine kinase (ADKIN; Tb927.6.2300) in T. brucei NY-SM cells; assay: Susceptibility of ADKIN RNAi clones (tetracycline-induced / non-induced); assay type: cell-based, Trypanosoma brucei brucei; settings: for IC50: single determinations
Description: as §1, §2, §3

Compound: Nc1ncnc2c1ccn2[C@@H]1O[C@H](CO)C[C@H]1O [Compound 9, 3’-deoxytubercidin]
- susceptibility of tetracycline-induced versus non-induced clones, remaining four constructs [1]: no significant differences
- IC50 ([1]; BCKDHA RNAi clone A +): 7.45 nM
- IC50 ([1]; BCKDHA RNAi clone A -): 7.58 nM and 7.81 nM
- IC50 ([1]; BCKDHA RNAi clone B -): 7.47 nM
- IC50 ([1]; EndoG RNAi clone A +): 7.75 nM
- IC50 ([1]; EndoG RNAi clone A -): 8.23 nM and 7.93 nM and 7.81 nM
- IC50 ([1]; EndoG RNAi clone B +): 7.63 nM and 7.94 nM and 8.26 nM
- IC50 ([1]; EndoG RNAi clone B -): 7.81 nM
- IC50 ([1]; FLA1BP RNAi clone A -): 6.66 nM
- IC50 ([1]; FLA1BP RNAi clone B +): 7.81 nM and 7.59 nM
- IC50 ([1]; FLA1BP RNAi clone B -): 7.64 nM and 7.01 nM
- IC50 ([1]; RHS5 RNAi clone A +): 8.05 nM and 7.59 nM
- IC50 ([1]; RHS5 RNAi clone A -): 7.93 nM
- IC50 ([1]; RHS5 RNAi clone B +): 8.37 nM and 7.06 nM
- IC50 ([1]; Trypanosoma brucei, BCKDHA RNAi clone A +): 7.99 nM
- IC50 ([1]; Trypanosoma brucei, BCKDHA RNAi clone A -): 7.98 nM
- IC50 ([1]; Trypanosoma brucei, BCKDHA RNAi clone B +): 8.39 nM
- IC50 ([1]; Trypanosoma brucei, BCKDHA RNAi clone B -): 7.41 nM
- IC50 ([1]; Trypanosoma brucei, EndoG RNAi clone A +): 8.04 nM
- IC50 ([1]; Trypanosoma brucei, EndoG RNAi clone A -): 8.17 nM
- IC50 ([1]; Trypanosoma brucei, EndoG RNAi clone B +): 8.04 nM
- IC50 ([1]; Trypanosoma brucei, EndoG RNAi clone B -): 7.92 nM
- IC50 ([1]; Trypanosoma brucei, FLA1BP RNAi clone A +): 8.1 nM
- IC50 ([1]; Trypanosoma brucei, FLA1BP RNAi clone A -): 7.7 nM
- IC50 ([1]; Trypanosoma brucei, FLA1BP RNAi clone B +): 8.04 nM
- IC50 ([1]; Trypanosoma brucei, FLA1BP RNAi clone B -): 7.46 nM
- IC50 ([1]; Trypanosoma brucei, RHS5 RNAi clone A +): 8.1 nM
- IC50 ([1]; Trypanosoma brucei, RHS5 RNAi clone A -): 7.87 nM
- IC50 ([1]; Trypanosoma brucei, RHS5 RNAi clone B +): 8.3 nM
- IC50 ([1]; Trypanosoma brucei, RHS5 RNAi clone B -): 7.76 nM
- fold reduced susceptibility in ADKIN knockdown cell lines [2]: ~ 20 fold
- Inhibition (%) ([2]; ADKIN A +, 0.000976563 µM): 2.55%
- Inhibition (%) ([2]; ADKIN A +, 0.00390625 µM): 2.6%
- Inhibition (%) ([2]; ADKIN A +, 0.0625 µM): 42% and 36% and 30%
- Inhibition (%) ([2]; ADKIN A +, 0.25 µM): 91% and 95%
- Inhibition (%) ([2]; ADKIN B +, 0.25 µM): 93% and 91% and 98%
- inhibition at 0.0625 µM ([2]; Trypanosoma brucei, ADKIN A +, 0.0625 µM): 33%
- inhibition at 0.25 µM ([2]; Trypanosoma brucei, ADKIN A +, 0.25 µM): 94%
- inhibition at 1 µM ([2]; Trypanosoma brucei, ADKIN A +): 99%
- inhibition at 4 µM ([2]; Trypanosoma brucei, ADKIN A +): 99%
- inhibition at 16 µM ([2]; Trypanosoma brucei, ADKIN A +): 100%
- inhibition at 64 µM ([2]; Trypanosoma brucei, ADKIN A +): 99%
- inhibition at 0.000244141 µM ([2]; Trypanosoma brucei, ADKIN B +, 0.000244141 µM): 0%
- inhibition at 0.000976563 µM ([2]; Trypanosoma brucei, ADKIN B +, 0.000976563 µM): 0%
- inhibition at 0.00390625 µM ([2]; Trypanosoma brucei, ADKIN B +, 0.00390625 µM): 0%
- inhibition at 0.015625 µM ([2]; Trypanosoma brucei, ADKIN B +, 0.015625 µM): 0%
- inhibition at 0.25 µM ([2]; Trypanosoma brucei, ADKIN B +, 0.25 µM): 96%
- inhibition at 1 µM ([2]; Trypanosoma brucei, ADKIN B +): 99%
- inhibition at 4 µM ([2]; Trypanosoma brucei, ADKIN B +): 99%
- inhibition at 16 µM ([2]; Trypanosoma brucei, ADKIN B +): 100%
- inhibition at 64 µM ([2]; Trypanosoma brucei, ADKIN B +): 100%
- EC50 ([2]; Trypanosoma brucei, read-out: EC50, ADKIN RNAi clones before knockdown): 7.7 ± 0.17 nM
- EC50 ([2]; Trypanosoma brucei, read-out: EC50 upon ADKIN knockdown): 100 ± 5 nM
- IC50 ([2]; Trypanosoma brucei, read-out: IC50, ADKIN A +, clone A, tetracycline-induced): 101 nM
- IC50 ([2]; Trypanosoma brucei, read-out: IC50, ADKIN A -, clone A, non-induced): 6.9 nM
- IC50 ([2]; Trypanosoma brucei, read-out: IC50, ADKIN B +, clone B, tetracycline-induced): 98.5 nM
- IC50 ([2]; read-out: IC50, ADKIN A +, clone A, tetracycline-induced): 117 nM and 123 nM and 92 nM and 78.4 nM and 88.9 nM and 95.7 nM and 111 nM
- IC50 ([2]; read-out: IC50, ADKIN A -, clone A, non-induced): 7.7 nM and 7.2 nM and 8.1 nM and 7.9 nM and 8.3 nM and 7.8 nM and 7.4 nM
- IC50 ([2]; read-out: IC50, ADKIN B +, clone B, tetracycline-induced): 110 nM and 121 nM and 120 nM (2×) and 109 nM and 132 nM and 127 nM
